Measurements taken from publication PMC8746798, “Evaluation of 2-Thioxoimadazolidin-4-one Derivatives as Potent Anti-Cancer Agents through Apoptosis Induction and Antioxidant Activation: In Vitro and In Vivo Approaches” (Molecules, 2021).

Tests used:
HepG2 cells = experiment: Colony forming assay; assay type: cell-based, human; settings: HepG2, 100 μM
Procedure: HepG2 cells were allowed to attach to form a complete monolayer after seeding 200 cells per well (6-well plate) for 24 h. Five concentrations of compound 4 (0.01, 0.1, 1, 10, 100 µM) were added to the cultured cells, and cells were incubated for 48 h, followed by washing with PBS. After 7 days of incubation, the colonies were fixed and stained with 1% crystal violet in methanol for 3 h. Finally, the crystal violet stain was used for 20 min to stain and count the cells using the light microscope.

[1] = test system: P53, PUMA, Caspase 3, 8, 9, Bcl-2, PI3K, AKT genes in HepG2 cells; experiment: Gene expression (RT-PCR) of apoptosis-related genes; assay type: cell-based, human; settings: HepG2, IC50 concentration, 48 h, control = 1
Procedure: The target genes of P53, PUMA, Caspases 3, 8, and 9, Bcl-2, PI3K, and AKT were chosen according to the interactive functional association network of the tested protein set using String bioinformatics database for analysis as shown in Supplementary Figure S1. HepG2 cells were treated for 48 h at 37 °C with the IC50 value of the compound 4 and followed by real-time PCR analysis for control and treated cells of the following genes, P53, PUMA, BCL2, CASP3, CASP8, CASP9, PI3k, and AKT, using the specific primers mentioned in Supplementary Table S3 compared to the control cells. Relative gene expression was calculated utilizing the ΔΔCT equation with normalization to the housekeeping beta-actin gene. Results were shown as a fold change in the mentioned gene expression in the treated versus control cells.
HepG2 cells were treated for 48 h at 37 °C with the IC50 value of the compound 4 and were collected for real-time PCR analysis with the perfect primer pairs (Supplementary, Table 1) of the following eight genes (P53, PUMA, BCL2, CASP3, CASP8, CASP9, PI3k and AKT) compared to the control cells, and for analysis first total RNA was extracted using RNeasy Mini Kit (Qiagen) following the manufacturer protocol of the kits than RNA was assessed for both the quality and quantity of RNA using NanoDrop ND-1000 spec-trophotometer at the absorbance ratio 260/280 nm [NanoDrop Tech., Inc. DE, USA]. Also, Whole RNA quality was examined by 1% agarose gel electrophoresis and afterward cDNA was obtained from one μg RNA using I-Script cDNA synthesis kit (BioRad). qRT-PCR were executed utilizing 10 ng of cDNA and Applied Biosystems Sybr Green master […]
conditions were 5 min [95 ◦C], followed by 45 cycles for 15 s [95 ◦C], for 60 s [58, 60, 62 ◦C] and for 1 min [72 ◦C] using applied Biosystems Step-One qRT-PCR (USA). Relative genes expression was finally calculated utilizing the ΔΔCT equation with normalization to that of the housekeeping beta-actin gene. Results were shown as fold change in gene expres-sion in the treated cells versus that of the control. […]

SMILES: O=C1NC(=S)N(c2ccc(O)cc2)/C1=C/c1cccs1 [Compound 4, (E)-1-(4-Hydroxyphenyl)-5-(thiophen-2-ylmethylene)-2-thioxoimidazolidin-4-one]
- number of colonies (HepG2 cells; 464 in control): 136
- inhibition at 100 µM (HepG2 cells; Homo sapiens, 48 h treatment, read-out: colony inhibition rate): ~88%
- AKT gene expression, fold change ([1]; reduced): 0.38 fold
- BCL-2 gene expression, fold change ([1]; reduced): 0.25 fold
- PI3K gene expression, fold change ([1]; reduced): 0.497 fold
- Caspase 3 gene expression, fold change ([1]; upregulation): 10.71 fold
- Caspase 8 gene expression, fold change ([1]; upregulation): 1.98 fold
- Caspase 9 gene expression, fold change ([1]; upregulation): 7.14 fold
- P53 gene expression, fold change ([1]; upregulation): 7.61 fold
- PUMA gene expression, fold change ([1]; upregulation): 2.31 fold
